{"source": "ChEMBL document CHEMBL1201862", "about": "“PubChem BioAssay data set” (2004)", "key": {"Cytochrome P450 3A4": {"biological_target": "Cytochrome P450 3A4 (Homo sapiens, UniProt P08684)"}, "Cytochrome P450 2C19": {"biological_target": "Cytochrome P450 2C19 (Homo sapiens, UniProt P33261)", "test": "Cytochrome panel assay with activity outcomes. Panel member name: p450-cyp2c19 Compounds with AC50 equal or less than 10 uM are considered active", "format": "functional"}, "cells [1]": {"test": "cells"}, "Cytochrome P450 2C9": {"biological_target": "Cytochrome P450 2C9 (Homo sapiens, UniProt P11712)"}, "Major prion protein": {"biological_target": "Major prion protein (Homo sapiens, UniProt P04156)", "format": "functional, cell-based"}, "Estrogen receptor beta": {"biological_target": "Estrogen receptor beta (Homo sapiens, UniProt Q92731)"}, "Estrogen receptor": {"biological_target": "T1, Estrogen receptor (Homo sapiens, UniProt P03372)", "T1 sequence (P03372 whole entry)": "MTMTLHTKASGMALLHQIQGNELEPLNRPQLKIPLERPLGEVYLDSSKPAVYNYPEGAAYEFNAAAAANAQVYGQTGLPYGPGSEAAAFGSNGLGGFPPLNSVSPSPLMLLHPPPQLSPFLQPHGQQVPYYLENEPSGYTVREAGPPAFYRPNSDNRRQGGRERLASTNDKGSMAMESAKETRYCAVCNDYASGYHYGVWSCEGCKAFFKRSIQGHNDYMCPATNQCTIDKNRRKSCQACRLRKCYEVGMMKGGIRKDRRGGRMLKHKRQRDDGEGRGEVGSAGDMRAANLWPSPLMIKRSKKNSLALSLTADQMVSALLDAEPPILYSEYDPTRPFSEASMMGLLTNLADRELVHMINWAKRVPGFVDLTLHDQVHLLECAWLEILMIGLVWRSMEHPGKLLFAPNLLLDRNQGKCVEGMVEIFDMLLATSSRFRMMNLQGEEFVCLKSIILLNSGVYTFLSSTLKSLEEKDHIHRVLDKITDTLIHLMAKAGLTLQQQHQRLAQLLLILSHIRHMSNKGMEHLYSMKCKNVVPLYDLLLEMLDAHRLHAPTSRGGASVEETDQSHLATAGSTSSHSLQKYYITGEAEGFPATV"}, "[2]": {"biological_target": "T2, Heat shock factor protein 1 (Mus musculus, UniProt P38532)", "T2 sequence (P38532 whole entry)": "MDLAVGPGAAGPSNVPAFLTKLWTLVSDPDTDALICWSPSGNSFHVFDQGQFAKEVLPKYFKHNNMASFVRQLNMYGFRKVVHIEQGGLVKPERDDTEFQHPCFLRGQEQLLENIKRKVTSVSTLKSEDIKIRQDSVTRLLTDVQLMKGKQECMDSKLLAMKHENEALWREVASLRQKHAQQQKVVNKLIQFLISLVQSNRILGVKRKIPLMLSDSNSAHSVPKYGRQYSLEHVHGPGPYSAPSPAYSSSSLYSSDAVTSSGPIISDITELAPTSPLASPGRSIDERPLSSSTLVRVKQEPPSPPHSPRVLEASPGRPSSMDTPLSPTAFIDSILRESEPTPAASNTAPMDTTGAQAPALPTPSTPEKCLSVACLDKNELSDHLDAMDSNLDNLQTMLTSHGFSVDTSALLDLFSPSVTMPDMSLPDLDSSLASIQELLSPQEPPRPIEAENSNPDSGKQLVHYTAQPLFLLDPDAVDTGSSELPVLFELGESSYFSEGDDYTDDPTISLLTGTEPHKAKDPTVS", "test": "decrease of HSF1-responsive luciferase luminescence – cell-based, NIH3T3, dose retest, confirmation (AID 2382);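 also: NIH3T3 fibroblasts with HSF1-driven luciferase reporter stressed by proteasome inhibitor MG132; luminescence from HSF1-driven luciferase expression after 8 hours of MG132 stress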", "format": "functional"}, "cells [3]": {"test": "cells", "remark": "listed apart in the source"}, "[4]": {"test": "Trypanosoma cruzi growth suppression in host cells – NIH3T3 host cells, beta-gal luminescence, confirmation (AID 2044);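 also: luminescent beta-galactosidase reporter signal from transgenic T. cruzi replicating inside host cells; inhibitors lower the luminescence signal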", "format": "functional, cell-based"}, "[5]": {"test": "NIH3T3 cell viability loss – ATP luminescence, mouse fibroblasts, counter-screen, dose response (AID 2010);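 also: cells exposed to compound for about 90 hours before reading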", "format": "functional, cell-based"}, "[6]": {"biological_target": "T3, Trace amine-associated receptor 1 (Homo sapiens, UniProt Q96RJ0)", "T3 sequence (Q96RJ0 whole entry)": "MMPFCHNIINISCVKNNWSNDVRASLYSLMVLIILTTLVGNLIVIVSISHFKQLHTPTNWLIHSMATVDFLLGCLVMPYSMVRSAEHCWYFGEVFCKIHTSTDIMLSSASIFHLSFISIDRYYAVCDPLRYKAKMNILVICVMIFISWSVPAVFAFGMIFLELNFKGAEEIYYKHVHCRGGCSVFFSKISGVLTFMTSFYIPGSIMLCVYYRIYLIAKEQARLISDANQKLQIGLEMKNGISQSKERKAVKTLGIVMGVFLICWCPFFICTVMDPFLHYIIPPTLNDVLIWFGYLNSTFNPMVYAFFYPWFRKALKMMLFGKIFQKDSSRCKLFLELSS", "test": "Counterscreen for agonists of the human trace amine associated receptor 1 (hTAAR1): Fluorescence-based cell-based high throughput dose response assay to identify hTAAR1 agonist that also desensitize TAAR1 receptor response.", "format": "functional"}, "cells [7]": {"test": "cells", "format": "functional, cell-based"}, "cells [8]": {"test": "cells", "format": "functional, cell-based", "remark": "listed apart in the source"}, "[9]": {"biological_target": "T3, Trace amine-associated receptor 1", "test": "Fluorescence-based cell-based high throughput dose response assay to identify agonists of the human trace amine associated receptor 1 (TAAR1).", "format": "functional"}, "[10]": {"test": "growth inhibition of yeast DHODH-expressing 3D7 parasites – SYBR Green, dry powder samples, dose response (AID 1159570);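 also: parasite growth measured after 72 hours of compound exposure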", "format": "functional, cell-based"}, "[11]": {"test": "growth inhibition of PfATP4-mutant resistant parasites – NITD609-resistant line, SYBR Green, dry powder, dose response (AID 1159571);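 also: parasites synchronized at ring stage by sorbitol before testing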", "format": "functional, cell-based"}, "[12]": {"test": "P. falciparum Dd2 growth inhibitors, dose response, SYBR Green, cherry-picked samples (AID 1159567)", "format": "functional, cell-based"}, "[13]": {"test": "toxicity to human HepG2 hepatoma cells – cell-based, plate reader, dry powder samples, cytotoxicity control, dose response (AID 1159569);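 also: inhibitor potency with signal falling toward the positive control level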", "format": "functional"}, "[14]": {"test": "Dd2 malaria parasite growth inhibition potency – SYBR Green, dry powder samples, dose response (AID 1159566);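 also: potency for growth inhibition with lower SYBR green DNA signal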", "format": "functional, cell-based"}, "[15]": {"test": "blockers of HIV-1 envelope-mediated cell-cell fusion – cherry-pick, dose response (AID 652057)", "format": "functional, cell-based"}, "[16]": {"biological_target": "T4, Oxysterols receptor LXR-beta (Homo sapiens, UniProt P55055)", "T4 sequence (P55055 whole entry)": "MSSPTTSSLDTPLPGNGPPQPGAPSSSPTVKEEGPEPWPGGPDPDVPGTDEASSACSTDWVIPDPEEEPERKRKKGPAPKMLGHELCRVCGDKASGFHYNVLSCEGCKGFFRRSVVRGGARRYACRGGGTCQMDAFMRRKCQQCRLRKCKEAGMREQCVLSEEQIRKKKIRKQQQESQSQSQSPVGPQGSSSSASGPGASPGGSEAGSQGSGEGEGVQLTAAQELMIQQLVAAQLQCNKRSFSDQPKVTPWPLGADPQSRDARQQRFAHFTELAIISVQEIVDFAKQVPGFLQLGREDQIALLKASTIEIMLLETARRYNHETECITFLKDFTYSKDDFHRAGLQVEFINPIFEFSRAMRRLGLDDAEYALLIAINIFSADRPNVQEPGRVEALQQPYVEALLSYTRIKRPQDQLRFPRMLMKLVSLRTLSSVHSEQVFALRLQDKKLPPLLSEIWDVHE", "format": "functional, cell-based"}, "[17]": {"test": "Late stage assay provider results from the probe development effort to identify inhibitors of the Plasmodium falciparum M18 Aspartyl Aminopeptidase (M18AAP): radiolabel-based cell-based dose response assay to identify compounds that inhibit P. falciparum growth in RBCs, Set 2..", "format": "functional"}, "[18]": {"test": "viability loss in HepG2 hepatoma cells – cell-based, ATP luminescence, cherry-pick, activator set 2, cytotoxicity control, dose response (AID 1053143)", "format": "functional"}}, "note": "The source made the active and inactive calls.", "data": [{"compound": "CC(=O)c1nnn(-c2nc(N)nc(N(c3ccccc3)c3ccccc3)n2)c1C", "values": [{"measurement": "AC50", "setting": "Cytochrome P450 3A4", "value": "inconclusive"}, {"measurement": "AC50", "setting": "Cytochrome P450 2C19", "value": "25100 nM (inconclusive)"}, {"measurement": "IC50", "setting": "cells [1]", "value": "> 138000 nM (inactive)"}, {"measurement": "AC50", "setting": "Cytochrome P450 2C9", "value": "31600 nM (inconclusive)"}, {"measurement": "IC50", "setting": "Major prion protein", "value": "1920 nM (active)"}]}, {"compound": "COc1ccc(NC(=O)c2ccco2)cc1N", "values": [{"measurement": "IC50", "setting": "Estrogen receptor beta", "value": "10700 nM (active)"}, {"measurement": "IC50", "setting": "Estrogen receptor", "value": "36100 nM (not active)"}, {"measurement": "EC50", "setting": "[2]", "value": "> 195000 nM (not active)"}]}, {"compound": "O=C(COc1ncnc2cc([N+](=O)[O-])ccc12)NCCc1ccc(Cl)cc1", "values": [{"measurement": "EC50", "setting": "cells [3]", "value": "377 nM (active)"}, {"measurement": "EC50", "setting": "[4]", "value": "< 100 nM (active)"}, {"measurement": "EC50", "setting": "[5]", "value": "> 30000 nM (not active)"}]}, {"compound": "COc1cc(CN2CCCCC2)ccc1OCc1ccccc1", "values": [{"measurement": "EC50", "setting": "cells [3]", "value": "670 nM (active)"}, {"measurement": "EC50", "setting": "[4]", "value": "< 100 nM (active)"}, {"measurement": "EC50", "setting": "[5]", "value": "> 60000 nM (not active)"}]}, {"compound": "c1ccc(CCNC2CCCCCC2)cc1", "values": [{"measurement": "IC50", "setting": "[6]", "value": "1720 nM (active)"}, {"measurement": "IC50", "setting": "cells [7]", "value": "> 29900 nM (inactive)"}, {"measurement": "EC50", "setting": "cells [8]", "value": "> 29900 nM (inactive)"}, {"measurement": "EC50", "setting": "[9]", "value": "495 nM (active)"}]}, {"compound": "C[C@@H]1CN([C@H](C)CO)S(=O)(=O)c2ccc(-c3ccncc3)cc2O[C@@H]1CN(C)Cc1ccc(Oc2ccccc2)cc1", "values": [{"measurement": "AC50", "setting": "[10]", "value": "589 nM (active)"}, {"measurement": "AC50", "setting": "[11]", "value": "616 nM (active)"}, {"measurement": "AC50", "setting": "[12]", "value": "1160 nM (active)"}, {"measurement": "AC50", "setting": "[13]", "value": "> 100000 nM (inactive)"}, {"measurement": "AC50", "setting": "[14]", "value": "539 nM (active)"}, {"measurement": "AC50", "setting": "[15]", "value": "22400 nM (active)"}]}, {"compound": "O=c1[nH]c(=O)n(C2CC(O)C(CO)O2)cc1I", "note": "(centres undefined)", "values": [{"measurement": "EC50", "setting": "[16]", "value": "> 67600 nM (inactive)"}]}, {"compound": "COc1ccc(CCN(C)c2ccnc3cc(Cl)ccc23)cc1OC", "values": [{"measurement": "IC50", "setting": "[17]", "value": "5750 nM (active)"}]}, {"compound": "COc1cc(Br)c(CCNc2c3c(nc4ccccc24)CCCC3)cc1OC", "values": [{"measurement": "IC50", "setting": "[17]", "value": "3000 nM (active)"}]}, {"compound": "COc1ccc(CCN(C)c2ccnc3ccccc23)cc1OC", "values": [{"measurement": "IC50", "setting": "[17]", "value": "12000 nM (inactive)"}]}, {"compound": "O=C(Oc1cccc(/C=N/NC(=O)c2ccccn2)c1)c1ccc([N+](=O)[O-])cc1", "values": [{"measurement": "AC50", "setting": "[18]", "value": "> 52000 nM (inactive)"}]}, {"compound": "C[C@@H]1CN([C@H](C)CO)S(=O)(=O)c2ccc(-c3cccc(C(=O)N(C)C)c3)cc2O[C@H]1CN(C)Cc1ccc2c(c1)OCO2", "values": [{"measurement": "AC50", "setting": "[10]", "value": "2270 nM (active)"}, {"measurement": "AC50", "setting": "[11]", "value": "1510 nM (active)"}, {"measurement": "AC50", "setting": "[12]", "value": "2570 nM (active)"}, {"measurement": "AC50", "setting": "[13]", "value": "64700 nM (active)"}, {"measurement": "AC50", "setting": "[14]", "value": "1300 nM (active)"}]}, {"compound": "c1cncc(-c2ccc([C@@H]3[C@@H]4CN(Cc5nccs5)C[C@H]3N4)cc2)c1", "values": [{"measurement": "AC50", "setting": "[10]", "value": "2970 nM (active)"}, {"measurement": "AC50", "setting": "[11]", "value": "2030 nM (active)"}, {"measurement": "AC50", "setting": "[12]", "value": "2150 nM (active)"}, {"measurement": "AC50", "setting": "[13]", "value": "79600 nM (active)"}, {"measurement": "AC50", "setting": "[14]", "value": "1720 nM (active)"}]}]}
